This note sets out measurements from patent EP3033337B1, “SUBSTITUTED IMIDAZOLES AS N-TYPE CALCIUM CHANNEL BLOCKERS” (Janssen Pharmaceutica NV, priority 2013, dated 2015).

Experiment [1] addresses T1, human N-type Ca channel (Homo sapiens, UniProt Q00975). The experiment is described as follows: Calcium influx assay (FDSS), KCl depolarization, Fluo8 dye. It counts as cell-based. Set-up: host or cells: HEK 293. As to conditions: HEK 293 cells expressing human N-type Ca channel; 100 mM KCl; read-out: N Type IC50 Data FDSS. On the procedure: All cell culture reagents were procured from HyClone and other reagents were from Fisher. Recombinant HEK 293 cells expressing human N-type Ca channel (Millipore) were maintained in DMEM F12 containing 10% FBS and selection antibiotics at 37 °C in 5% CO2.
Cells were incubated at 30 °C in 5% CO2 overnight. The medium was removed and cells were loaded with Fluo8 dye (AAT Bioquest) at 37 °C and 30 °C, 30 min each in darkness. Cells were washed four times with wash buffer (16 mM Herep pH 7.2, 2 mM CaCl2, 1 mM MgCl2, 5 mM glucose, 140 mM choline chloride and 2 mM KCl) leaving 15 µL buffer after the last wash. Compounds of Formula (I), serially diluted, were added to the cell plate. The plates were incubated in darkness for 15 min. Cells were depolarized with 100 mM KCl and Ca influx was measured.

Experiment [2] addresses T1, human N-type Ca channel. The experiment is described as follows: Electrophysiological response, QPatch (depolarization -80 mV to +20 mV). The conditions noted are these: for inhibition at 10 µM: read-out: Qpatch Pulse=1 (percent inhibition); for N Type IC50 Data Qpatch Pulse=1 / N Type IC50 Data Qpatch Pulse=15: concentration range 0.01-0.3 µM. For orientation: The patch-clamp technique gives a direct electrical read-out from membranes.

The mark [3] stands for this setting: N Type IC50 Data Qpatch Pulse=15, Pulse=15, concentration range 0.3-10 µM.
Where [4] appears, read: N Type IC50 Data Qpatch Pulse=1, Pulse=1, concentration range 0.01-1 µM.
Where [5] appears, read: read-out: N Type IC50 Data Qpatch Pulse=15, Pulse=15, concentration range 0.01-1 µM.
[6] abbreviates: N Type IC50 Data Qpatch Pulse=1, Pulse=1, concentration range 0.3-10 µM.
The mark [7] stands for this setting: N Type IC50 Data Qpatch Pulse=15, Pulse=15, concentration range 0.01-1 µM.

T1 sequence (Q00975 whole entry): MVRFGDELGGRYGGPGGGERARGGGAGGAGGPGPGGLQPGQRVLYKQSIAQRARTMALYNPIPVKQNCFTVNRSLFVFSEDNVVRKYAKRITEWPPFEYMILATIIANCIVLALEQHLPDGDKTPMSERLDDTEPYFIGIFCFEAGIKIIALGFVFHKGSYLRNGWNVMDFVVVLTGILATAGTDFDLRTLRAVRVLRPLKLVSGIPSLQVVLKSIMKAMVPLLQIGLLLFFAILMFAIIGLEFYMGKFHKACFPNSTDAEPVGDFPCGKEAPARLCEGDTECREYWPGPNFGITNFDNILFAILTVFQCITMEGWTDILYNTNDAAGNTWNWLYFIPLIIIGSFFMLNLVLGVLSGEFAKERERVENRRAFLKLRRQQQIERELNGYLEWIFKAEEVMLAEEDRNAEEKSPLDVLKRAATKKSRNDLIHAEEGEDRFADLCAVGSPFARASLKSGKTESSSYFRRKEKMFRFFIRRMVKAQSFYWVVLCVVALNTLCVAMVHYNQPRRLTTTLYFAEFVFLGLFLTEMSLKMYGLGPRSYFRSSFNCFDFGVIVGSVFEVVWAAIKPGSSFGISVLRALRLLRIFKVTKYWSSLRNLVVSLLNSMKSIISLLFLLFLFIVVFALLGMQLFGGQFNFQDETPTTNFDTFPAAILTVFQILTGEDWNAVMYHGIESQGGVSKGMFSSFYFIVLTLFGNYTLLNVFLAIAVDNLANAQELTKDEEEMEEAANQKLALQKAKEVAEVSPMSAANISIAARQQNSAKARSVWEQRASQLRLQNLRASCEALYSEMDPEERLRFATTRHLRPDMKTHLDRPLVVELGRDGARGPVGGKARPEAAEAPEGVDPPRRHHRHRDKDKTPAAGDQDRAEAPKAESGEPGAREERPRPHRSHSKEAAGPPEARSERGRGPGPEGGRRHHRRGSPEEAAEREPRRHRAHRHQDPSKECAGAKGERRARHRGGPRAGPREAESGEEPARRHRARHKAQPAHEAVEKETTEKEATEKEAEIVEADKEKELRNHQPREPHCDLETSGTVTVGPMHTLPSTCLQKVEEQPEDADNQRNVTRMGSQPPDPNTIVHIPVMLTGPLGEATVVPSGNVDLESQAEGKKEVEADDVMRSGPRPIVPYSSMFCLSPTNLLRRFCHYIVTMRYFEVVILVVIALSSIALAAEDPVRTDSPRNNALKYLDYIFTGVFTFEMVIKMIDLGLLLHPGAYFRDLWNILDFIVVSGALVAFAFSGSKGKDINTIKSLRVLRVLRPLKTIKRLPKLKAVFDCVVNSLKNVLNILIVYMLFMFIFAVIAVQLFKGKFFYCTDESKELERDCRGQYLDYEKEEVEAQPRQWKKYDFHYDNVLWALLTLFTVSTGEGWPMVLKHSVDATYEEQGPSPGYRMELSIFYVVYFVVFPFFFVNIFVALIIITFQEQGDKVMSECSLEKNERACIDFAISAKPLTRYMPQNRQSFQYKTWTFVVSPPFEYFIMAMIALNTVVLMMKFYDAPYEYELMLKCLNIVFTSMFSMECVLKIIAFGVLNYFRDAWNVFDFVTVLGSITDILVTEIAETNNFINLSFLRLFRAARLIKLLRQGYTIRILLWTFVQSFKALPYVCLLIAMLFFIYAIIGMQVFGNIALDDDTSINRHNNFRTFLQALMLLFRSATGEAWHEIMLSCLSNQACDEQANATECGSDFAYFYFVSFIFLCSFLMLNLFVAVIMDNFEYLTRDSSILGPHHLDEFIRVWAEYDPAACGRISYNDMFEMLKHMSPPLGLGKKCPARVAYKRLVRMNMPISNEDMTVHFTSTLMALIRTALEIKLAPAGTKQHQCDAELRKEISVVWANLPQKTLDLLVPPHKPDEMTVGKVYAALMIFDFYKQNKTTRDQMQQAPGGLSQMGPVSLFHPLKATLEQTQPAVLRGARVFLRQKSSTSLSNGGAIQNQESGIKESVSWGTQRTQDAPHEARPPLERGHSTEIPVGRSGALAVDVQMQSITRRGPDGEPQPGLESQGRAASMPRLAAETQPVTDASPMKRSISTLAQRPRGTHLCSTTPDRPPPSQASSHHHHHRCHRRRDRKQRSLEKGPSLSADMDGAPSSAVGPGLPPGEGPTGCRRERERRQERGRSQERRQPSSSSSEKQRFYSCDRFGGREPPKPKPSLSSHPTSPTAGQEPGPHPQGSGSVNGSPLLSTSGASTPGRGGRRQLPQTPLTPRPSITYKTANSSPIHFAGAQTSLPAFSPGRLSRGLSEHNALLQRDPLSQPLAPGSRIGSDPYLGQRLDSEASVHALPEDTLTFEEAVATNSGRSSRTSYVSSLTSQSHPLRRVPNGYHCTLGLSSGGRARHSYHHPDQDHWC
T1 sequence (P54284 whole entry partner): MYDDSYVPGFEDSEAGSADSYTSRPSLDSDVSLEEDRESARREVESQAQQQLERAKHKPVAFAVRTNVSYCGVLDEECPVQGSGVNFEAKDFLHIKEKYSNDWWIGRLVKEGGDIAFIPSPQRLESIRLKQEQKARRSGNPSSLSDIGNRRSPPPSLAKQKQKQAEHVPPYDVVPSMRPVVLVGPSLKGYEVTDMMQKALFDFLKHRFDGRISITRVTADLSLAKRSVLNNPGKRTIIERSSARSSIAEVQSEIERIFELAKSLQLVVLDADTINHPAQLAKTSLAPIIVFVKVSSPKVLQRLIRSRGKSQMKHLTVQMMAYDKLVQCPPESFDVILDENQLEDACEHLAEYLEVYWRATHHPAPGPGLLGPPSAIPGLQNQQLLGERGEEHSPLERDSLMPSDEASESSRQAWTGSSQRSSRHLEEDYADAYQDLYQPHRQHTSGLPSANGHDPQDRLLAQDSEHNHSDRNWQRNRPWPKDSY
T1 sequence (P54289 25-956 partner limits assumed): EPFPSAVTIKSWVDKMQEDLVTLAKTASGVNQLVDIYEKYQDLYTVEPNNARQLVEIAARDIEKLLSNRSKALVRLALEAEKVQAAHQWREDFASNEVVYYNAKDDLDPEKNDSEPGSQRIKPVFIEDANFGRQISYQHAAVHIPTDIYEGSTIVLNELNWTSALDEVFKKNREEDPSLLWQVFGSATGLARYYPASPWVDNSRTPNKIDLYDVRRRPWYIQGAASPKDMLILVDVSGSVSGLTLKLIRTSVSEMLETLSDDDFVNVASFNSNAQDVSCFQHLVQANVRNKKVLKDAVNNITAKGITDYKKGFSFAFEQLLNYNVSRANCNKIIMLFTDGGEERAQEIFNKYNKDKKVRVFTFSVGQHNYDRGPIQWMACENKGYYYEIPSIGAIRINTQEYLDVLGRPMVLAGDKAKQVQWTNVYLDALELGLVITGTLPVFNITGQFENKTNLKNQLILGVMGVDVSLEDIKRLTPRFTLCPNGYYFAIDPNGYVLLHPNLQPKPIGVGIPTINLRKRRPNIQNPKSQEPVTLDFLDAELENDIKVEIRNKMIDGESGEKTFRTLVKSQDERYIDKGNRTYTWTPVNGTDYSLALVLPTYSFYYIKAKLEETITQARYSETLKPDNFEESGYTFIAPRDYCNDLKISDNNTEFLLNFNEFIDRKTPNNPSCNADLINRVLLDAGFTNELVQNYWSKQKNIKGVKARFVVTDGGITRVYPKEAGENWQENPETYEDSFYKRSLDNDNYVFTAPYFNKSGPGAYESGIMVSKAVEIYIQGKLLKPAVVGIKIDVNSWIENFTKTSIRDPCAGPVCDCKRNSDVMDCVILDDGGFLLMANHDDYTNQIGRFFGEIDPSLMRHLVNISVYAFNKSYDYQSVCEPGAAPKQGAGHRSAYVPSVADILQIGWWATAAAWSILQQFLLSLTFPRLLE
T1 sequence (P54289 957-1103 partner limits assumed): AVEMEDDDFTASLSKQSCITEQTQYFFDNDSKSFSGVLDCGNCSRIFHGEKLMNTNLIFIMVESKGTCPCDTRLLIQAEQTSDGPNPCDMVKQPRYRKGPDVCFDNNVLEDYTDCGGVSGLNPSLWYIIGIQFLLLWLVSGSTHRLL

On to `COc1cnccc1-c1nc(C2CC(C)(C)OC(C)(C)C2)cn1-c1ccc(F)cc1` [Compound 2, 4-(1-(4-fluorophenyl)-4-(2,2,6,6 tetramethyltetrahydro-2H-pyran-4-yl)-1H-imidazol-2-yl)-3-methoxypyridine], for which the IC50 at human N-type Ca channel [1] is 128 nM; at human N-type Ca channel [2] (setting [3]) it was 6200 nM.
`CCOc1ccc(-n2cc(C3CC(C)(C)OC(C)(C)C3)nc2-c2ccncc2OC)cc1` [Compound 3, 4-(1-(4-ethoxyphenyl)-4-(2,2,6,6-tetramethyltetrahydro-2H-pyran-4-yl)-1H-imidazol-2-yl)-3-methoxypyridine]: the values for the IC50 on human N-type Ca channel [1], on human N-type Ca channel [2] (setting [4]) and at human N-type Ca channel [2] (setting [5]) were 376 nM, 830 nM and over 1000 nM, respectively.
As for `COc1ccccc1-c1nc(C2CC(C)(C)OC(C)(C)C2)cn1-c1ccc(F)cc1` [Compound 4, 1-(4-fluorophenyl)-2-(2-methoxyphenyl)-4-(2,2,6,6-tetramethyltetrahydro-2H-pyran-4-yl)-1H-imidazole], the IC50 at human N-type Ca channel [1] worked out at 17 nM; against human N-type Ca channel [2] (setting [3]) it was 1060 nM.
Take `COc1ccccc1-c1nc(C2CC(C)(C)OC(C)(C)C2)cn1-c1ccc(C)nc1` [Compound 5, 5-(2-(2-methoxyphenyl)-4-(2,2,6,6-tetramethyltetrahydro-2H-pyran-4-yl)-1H-imidazol-1-yl)-2-methylpyridine]: the IC50 on human N-type Ca channel [1] was 191 nM; against human N-type Ca channel [2] (setting [6]) it was 5900 nM.
`COc1ccccc1-c1nc(C2CC(C)(C)OC(C)(C)C2)cn1-c1ccc(C)cn1` [Compound 6, 2-(2-(2-methoxyphenyl)-4-(2,2,6,6-tetramethyltetrahydro-2H-pyran-4-yl)-1H-imidazol-1-yl)-5-methylpyridine]: on human N-type Ca channel [1], the IC50 was 739 nM.
Take `COc1ccc(-n2cc(C3CC(C)(C)OC(C)(C)C3)nc2-c2ccccc2OC)cc1` [Compound 7, 2-(2-methoxyphenyl)-1-(4-methoxyphenyl)-4-(2,2,6,6-tetramethyltetrahydro-2H-pyran-4-yl)-1H-imidazole]: the IC50 on human N-type Ca channel [1] was 113 nM; on human N-type Ca channel [2] (setting [6]) it was 1170 nM; at human N-type Ca channel [2] (setting [3]) it was 680 nM.
In the case of `COc1ccccc1-c1nc(C2CC(C)(C)OC(C)(C)C2)cn1-c1cnc(C)nc1` [Compound 8, 5-(2-(2-methoxyphenyl)-4-(2,2,6,6-tetramethyltetrahydro-2H-pyran-4-yl)-1H-imidazol-1-yl)-2-mithylpyrimidine], the IC50 on human N-type Ca channel [1] is over 10000 nM; against human N-type Ca channel [2] (setting [4]) it was 508 nM; at human N-type Ca channel [2] (setting [7]), over 1000 nM.
`COc1ncccc1-c1nc(C2CC(C)(C)OC(C)(C)C2)cn1Cc1cccc(Cl)c1` [Compound 9, 3-(1-(3-chlorobenzyl)-4-(2,2,6,6-tetramethyltetrahydro-2H-pyran-4-yl)-1H-imidazol-2-yl)-2-methoxypyridine]: the IC50 at human N-type Ca channel [1] was determined as 793 nM.
Take `COc1cccnc1-c1nc(C2CC(C)(C)OC(C)(C)C2)cn1-c1ccc(C#N)cc1` [Compound 12, 4-(2-(3-methoxypyridin-2-yl)-4-(2,2,6,6-tetramethyltetrahydro-2H-pyran-4-yl)-1H-imidazol-1-yl)benzonitrile]: the half-inhibitory concentration (IC50) on human N-type Ca channel [1] was determined as 630 nM. Further, at human N-type Ca channel [2], the inhibition at 10 µM amounted to 28%.
For the molecule `COc1cnccc1-c1nc(C2CC(C)(C)OC(C)(C)C2)cn1-c1ccc(Cl)c(F)c1` [Compound 13, 4-(1-(4-chloro-3-fluorophenyl)-4-(2,2,6,6-tetramethyltetrahydro-2H-pyran-4-yl)-1H-imidazol-2-yl)-3-methoxypyridine], the IC50 is 200 nM at human N-type Ca channel [1], over 1000 nM on human N-type Ca channel [2] (setting [4]) and over 1000 nM on human N-type Ca channel [2] (setting [5]).
`COc1ccccc1-c1nc(C2CC(C)(C)OC(C)(C)C2)cn1-c1ccc(Cl)c(C#N)c1` [Compound 14, 2-chloro-5-(2-(2-methoxyphenyl)-4-(2,2,6,6-tetramethyltetrahydro-2H-pyran-4-yl)-1H-imidazol-1-yl)benzonitrile]: the IC50 was 2700 nM on human N-type Ca channel [1], 266 nM on human N-type Ca channel [2] (setting [4]) and over 1000 nM against human N-type Ca channel [2] (setting [7]).
For `COc1ncccc1-c1nc(C2CC(C)(C)OC(C)(C)C2)cn1-c1ccc(C#N)c(C)c1` [Compound 15, 4-(2-(2-methoxypyridin-3-yl)-4-(2,2,6,6-tetramethyltetrahydro-2H-pyran-4-yl)-1H-imidazol-1-yl)-2-methylbenzonitrile], the IC50 at human N-type Ca channel [1] stood at 256 nM. For the same molecule, the “N Type IC50 Data Qpatch Pulse=1” value on human N-type Ca channel [2] was “poor fit(0.01-0.3 µM)”. On human N-type Ca channel [2] (Pulse=15), the “N Type IC50 Data Qpatch Pulse=15” value is “poor fit(0.01-0.3 µM)”.
As for `COc1ncccc1-c1nc(C2CC(C)(C)OC(C)(C)C2)cn1-c1ccc(F)c(F)c1F` [Compound 16, 2-methoxy-3-(4-(2,2,6,6-tetramethyltetrahydro-2H-pyran-4-yl)-1-(2,3,4-trifluorophenyl)-1H-imidazol-2-yl)pyridine], at human N-type Ca channel [1], the IC50 turned out to be 359 nM. Also, the “N Type IC50 Data Qpatch Pulse=1” value on human N-type Ca channel [2] is on record as “poor fit(0.01-0.3 µM)”. Also, the “N Type IC50 Data Qpatch Pulse=15” value at human N-type Ca channel [2] (Pulse=15) is recorded as “poor fit(0.01-0.3µM)”.
For `COc1cccnc1-c1nc(C2CC(C)(C)OC(C)(C)C2)cn1-c1ccc(F)c(Cl)c1` [Compound 17, 2-(1-(3-chloro-4-fluorophenyl)-4-(2,2,6,6-tetramethyltetrahydro-2H-pyran-4-yl)-1H-imidazol-2-yl)-3-methoxypyridine], the IC50 on human N-type Ca channel [1] worked out at 591 nM; on human N-type Ca channel [2] (setting [6]) it was 4400 nM; against human N-type Ca channel [2] (setting [3]), 5200 nM.
Regarding `COc1cnccc1-c1nc(C2CC(C)(C)OC(C)(C)C2)cn1-c1ccc(F)c(Cl)c1` [Compound 18, 4-(1-(3-chloro-4-fluorophenyl)-4-(2,2,6,6-tetramethyltetrahydro-2H-pyran-4-yl)-1H-imidazol-2-yl)-3-methoxypyridine], the IC50 on human N-type Ca channel [1] amounted to 108 nM; on human N-type Ca channel [2] (setting [4]) it was 694 nM; on human N-type Ca channel [2] (setting [7]) it was 376 nM.
As for `COc1cccnc1-c1nc(C2CC(C)(C)OC(C)(C)C2)cn1-c1ccc(Cl)c(F)c1` [Compound 19, 2-(1-(4-chloro-3-fluorophenyl)-4-(2,2,6,6-tetramethyltetrahydro-2H-pyran-4-yl)-1H-imidazol-2-yl)-3-methoxypyridine], the IC50 at human N-type Ca channel [1] worked out at 263 nM; at human N-type Ca channel [2] (setting [4]), 966 nM. Further, on human N-type Ca channel [2] (read-out: Qpatch Pulse=15 (percent inhibition)), the inhibition at 1 µM amounted to 28%.
Regarding `COc1ccncc1-c1nc(C2CC(C)(C)OC(C)(C)C2)cn1-c1ccc(F)c(Cl)c1` [Compound 20, 3-(1-(3-chloro-4-fluorophenyl)-4-(2,2,6,6-tetramethyltetrahydro-2H-pyran-4-yl)-1H-imidazol-2-yl)-4-methoxypyridine], the concentration for half-maximal inhibition (IC50) was 1060 nM at human N-type Ca channel [1], over 1000 nM at human N-type Ca channel [2] (setting [4]) and over 1000 nM on human N-type Ca channel [2] (setting [5]).
With `COc1ccccc1-c1nc(C2CC(C)(C)OC(C)(C)C2)cn1-c1ccc(C#N)c(C)c1` [Compound 21, 4-(2-(2-methoxyphenyl)-4-(2,2,6,6-tetramethyltetrahydro-2H-pyran-4-yl)-1H-imidazol-1-yl)-2-methylbenzonitrile], the IC50 at human N-type Ca channel [1] is 119 nM; at human N-type Ca channel [2] (setting [4]), 639 nM.
`COc1ccccc1-c1nc(C2CC(C)(C)OC(C)(C)C2)cn1-c1ccc(C)c(C#N)c1` [Compound 22, 5-(2-(2-methoxyphenyl)-4-(2,2,6,6-tetramethyltetrahydro-2H-pyran-4-yl)-1H-imidazol-1-yl)-2-methylbenzonitrile]: the IC50 is 75 nM on human N-type Ca channel [1], 590 nM at human N-type Ca channel [2] (setting [4]) and 847 nM on human N-type Ca channel [2] (setting [7]).
With `COc1cccnc1-c1nc(C2CC(C)(C)OC(C)(C)C2)cn1-c1ccc(F)c(F)c1` [Compound 35, 2-(1-(3,4-difluorophenyl)-4-(2,2,6,6-tetramethyltetrahydro-2H-pyran-4-yl)-1H-imidazol-2-yl)-3-methoxypyridine], on human N-type Ca channel [1], the IC50 came to 838 nM.
On the same count and under the same terms, in the case of `COc1cccnc1-c1nc(C2CC(C)(C)OC(C)(C)C2)cn1-c1ccc(Cl)cc1` [Compound 67, 2-(1-(4-chlorophenyl)-4-(2,2,6,6-tetramethyltetrahydro-2H-pyran-4-yl)-1H-imidazol-2-yl)-3-methoxypyridine] it was 166 nM.
`COc1ccccc1-c1nc(C2CC(C)(C)OC(C)(C)C2)cn1Cc1cncnc1` [Compound 100, 5-((2-(2-methoxyphenyl) - 4-(2,2,6,6-tetramethyltetrahydro-2H-pyran-4-yl)-1H-imidazol-1-yl)methyl) pyrimidine]: on human N-type Ca channel [1], the IC50 was determined as 10000 nM.
Same read-out and setting: in the case of `COc1cccnc1-c1nc(C2(O)CC(C)(C)OC(C)(C)C2)cn1-c1ccc(Cl)cc1` [Compound 104, 4-(1-(4-chlorophenyl)-2-(3-methoxypyridin-2-yl)-1H-imidazol-4-yl)-2,2,6,6-tetramethyltetrahydro-2H-pyran-4-ol] it was 464 nM.
Still for that read-out and setting: the result for `COc1ncccc1-c1nc(C2(O)CC(C)(C)OC(C)(C)C2)cn1-c1ccc(C#N)cc1` [Compound 115, 4-(4-(4-hydroxy-2,2,6,6-tetramethyltetrahydro-2H-pyran-4-yl)-2-(2-methoxypyridin-3-yl)-1H-imidazol-1-yl)benzonitrite] reads 731 nM.
Turning to `COc1ccccc1-c1nc(C2=CC(C)(C)OC(C)(C)C2)cn1-c1ccc(C#N)c(F)c1` [Compound 126], the inhibition at 10 µM at human N-type Ca channel [2] stood at 29%.

By IC50 is commonly meant the concentration needed to halve the response being measured. The inhibition is the percentage by which the read-out fell short of the control.
